Measurements published in ChEMBL document CHEMBL1201862, “PubChem BioAssay data set” (2004).
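Test compounds were applied to cells in 96-well plates for 48 hours at 5 doses. Abbreviation: GI50, concentration required for 50% inhibition of growth.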 Activity calls are given as the source filed them. Rule as the data show it: active = GI50 up to about 1.1 µM and inactive = higher.

Legend:
Assay in all cases: inhibition of tumour cell growth, NCI panel, 48 h
[1] = test system: A498
[2] = test system: HCT-116
[3] = test system: HOP-92
[4] = test system: IGROV-1
[5] = test system: KM12
[6] = test system: Malme-3M
[7] = test system: NCI-H23
[8] = test system: OVCAR-5
[9] = test system: OVCAR-8
[10] = test system: SF-295
[11] = test system: SK-MEL-2
[12] = test system: SK-MEL-5
[13] = test system: SK-OV-3
[14] = test system: SNB-19
[15] = test system: SNB-75
[16] = test system: UACC-62
[17] = test system: OVCAR-3
[18] = test system: NCI-H226

Measured: GI50

CN(C)CCc1ccc(Cl)cc1Cl
inactive: [1] > 100 µM | [2] > 100 µM | [3] 62.2 µM | [4] > 100 µM | [5] > 100 µM | [6] > 100 µM | [7] > 100 µM | [8] > 100 µM | [9] > 100 µM | [10] > 100 µM | [11] > 100 µM | [12] > 100 µM | [13] > 100 µM | [14] > 100 µM | [15] 28.3 µM | [16] > 100 µM

O=C(O)c1c2c(cc3c(=O)cc(-c4ccccc4)oc13)CCCC2
inactive: [1] > 100 µM | [2] > 100 µM | [3] > 100 µM | [4] > 100 µM | [5] > 100 µM | [6] > 100 µM | [7] > 100 µM | [17] > 100 µM | [8] > 100 µM | [9] > 100 µM | [10] > 100 µM | [11] > 100 µM | [12] > 100 µM | [13] > 100 µM | [14] > 100 µM | [15] 6.59 µM | [16] > 100 µM

Cc1cc(Cl)ccc1NC(=O)C1C(=O)C(=O)N(c2ccc(Cl)cc2C)C1=O (stereo unspecified)
inactive: [1] > 100 µM | [2] 43.8 µM | [3] 14.9 µM | [4] > 100 µM | [6] > 100 µM | [18] 49.8 µM | [7] 74.5 µM | [17] 36.9 µM | [8] 48.3 µM | [9] 56.6 µM | [10] 95.5 µM | [11] 89.9 µM | [12] > 100 µM | [13] > 100 µM | [14] 21 µM | [15] > 100 µM | [16] 63.2 µM

COc1cc(C)c(C(=O)/C=C/c2cc(OC)c(O)c(OC)c2)cc1O
inactive: [1] 31.6 µM | [2] 14.1 µM | [4] 28.9 µM | [5] 15.9 µM | [6] 20.1 µM | [7] 12.2 µM | [17] 25.2 µM | [8] 27.6 µM | [9] 30.2 µM | [10] 39 µM | [11] 18.9 µM | [12] 17 µM | [13] 32.1 µM | [14] 18 µM | [15] 20.7 µM | [16] 17.7 µM

COc1ccc2c(c1)[n+]([O-])c(C(=O)C/C(=N\NC(=O)C[N+](C)(C)C)C(=O)Nc1cc(Cl)ccc1Cl)c(C)[n+]2[O-]
inactive: [1] > 100 µM | [2] > 100 µM | [3] > 100 µM | [4] > 100 µM | [5] > 100 µM | [6] > 100 µM | [18] > 100 µM | [7] > 100 µM | [17] > 100 µM | [8] > 100 µM | [9] > 100 µM | [10] > 100 µM | [11] > 100 µM | [12] > 100 µM | [14] > 100 µM | [15] > 100 µM | [16] 97.7 µM

NC(CO)c1ccc(OCc2ccccc2)cc1 (stereo unspecified)
inactive: [1] > 100 µM | [2] > 78.7 µM | [3] 27.7 µM | [4] > 100 µM | [5] > 100 µM | [6] > 100 µM | [18] > 100 µM | [7] > 100 µM | [17] > 100 µM | [8] > 100 µM | [9] > 100 µM | [10] > 100 µM | [11] > 100 µM | [12] > 100 µM | [13] > 100 µM | [14] > 63.7 µM | [15] 20.3 µM | [16] > 70.8 µM

C=CCOC1CC(n2cnc3c(N)ncnc32)OC1CO (stereo unspecified)
inactive: [2] > 100 µM | [3] > 100 µM | [4] > 100 µM | [5] > 100 µM | [6] > 100 µM | [18] > 100 µM | [7] > 100 µM | [17] > 100 µM | [8] > 100 µM | [9] > 100 µM | [10] > 100 µM | [11] > 100 µM | [12] > 100 µM | [14] > 100 µM | [15] 51.1 µM | [16] > 100 µM

O=C(O)COc1ccc(O)c2c1C(=O)CCCC2=O
inactive: [1] > 100 µM | [2] > 100 µM | [4] > 100 µM | [5] > 100 µM | [6] > 100 µM | [7] > 100 µM | [17] > 100 µM | [8] > 100 µM | [9] > 100 µM | [10] > 100 µM | [11] > 100 µM | [12] > 100 µM | [13] > 100 µM | [14] > 100 µM | [16] > 100 µM

O=C1NC2C=CN(Cc3ccccc3)C=C2C(=O)N2CCCC12 (stereo unspecified)
inactive: [1] > 100 µM | [2] > 100 µM | [3] > 100 µM | [4] > 100 µM | [5] > 100 µM | [6] > 100 µM | [18] > 100 µM | [7] > 100 µM | [17] > 100 µM | [8] > 100 µM | [9] > 100 µM | [10] > 100 µM | [11] > 100 µM | [12] > 100 µM | [13] > 100 µM | [14] > 100 µM | [15] > 100 µM | [16] > 100 µM

CCCCCCCC(=O)OCC(COC(=O)C(C)(C)C)OC(=O)Cc1ccccc1 (stereo unspecified)
inactive: [1] > 100 µM | [2] > 100 µM | [3] > 100 µM | [4] > 100 µM | [6] > 100 µM | [18] > 100 µM | [7] > 100 µM | [17] 58.3 µM | [8] > 100 µM | [9] > 100 µM | [10] > 100 µM | [12] > 100 µM | [13] > 100 µM | [14] > 100 µM | [16] > 100 µM

COc1ccc(-c2cc(C(=O)Nc3cccc(C(F)(F)F)c3)nc(S)n2)cc1
inactive: [1] > 100 µM | [2] > 100 µM | [3] > 100 µM | [4] > 100 µM | [5] > 100 µM | [6] > 100 µM | [18] > 100 µM | [7] > 100 µM | [17] > 100 µM | [8] > 100 µM | [9] > 100 µM | [10] > 100 µM | [11] > 100 µM | [12] > 100 µM | [13] > 100 µM | [14] > 100 µM | [15] > 100 µM | [16] > 100 µM

N#C/C(=N\c1ccccc1N(C(=O)c1ccccc1)C(=O)c1ccccc1)c1ccccc1
inactive: [1] > 59.2 µM | [2] 6.43 µM | [3] 24.7 µM | [4] 6.67 µM | [5] 3.62 µM | [6] > 100 µM | [18] > 69.5 µM | [7] > 62.5 µM | [17] 8.91 µM | [8] > 47.4 µM | [9] 10.3 µM | [10] 8.89 µM | [11] 42.1 µM | [12] 70.8 µM | [13] > 100 µM | [14] 3.62 µM | [15] > 100 µM | [16] 35.9 µM

CCOc1ccc2c(c1)[n+]([O-])c(-c1ccccc1Cl)c(N)[n+]2[O-]
inactive: [1] > 100 µM | [2] > 100 µM | [3] > 100 µM | [4] > 100 µM | [5] > 100 µM | [6] > 100 µM | [18] > 100 µM | [7] > 100 µM | [17] > 100 µM | [8] > 100 µM | [9] > 100 µM | [10] > 100 µM | [11] > 100 µM | [12] 90.2 µM | [13] > 100 µM | [14] > 100 µM | [15] 80 µM

C=C1c2ccccc2N(S(=O)(=O)c2ccc(C)cc2)C12CCCCC2
inactive: [2] 33 µM | [3] 4.27 µM | [4] > 100 µM | [5] 38.5 µM | [6] 34.8 µM | [18] 53.2 µM | [7] 25.3 µM | [17] 77.6 µM | [8] > 100 µM | [9] > 100 µM | [10] 74.5 µM | [11] 52.6 µM | [12] 30.8 µM | [13] > 100 µM | [14] > 100 µM | [15] 50.9 µM | [16] 62.2 µM

COc1cc(C2C(C(=O)O)=C(COC(C)=O)Oc3cc4c(cc32)OCO4)cc(OC)c1OC(C)=O (stereo unspecified)
inactive: [2] > 100 µM | [3] > 100 µM | [4] > 100 µM | [6] > 100 µM | [7] > 100 µM | [17] > 100 µM | [9] > 100 µM | [10] > 100 µM | [11] > 100 µM | [12] > 100 µM | [13] > 100 µM | [14] > 100 µM | [15] > 100 µM | [16] > 100 µM

COc1c2c(c3c(c1C1OC(C)[C@@H](C)O1)CC(C)(C)O3)C(=O)c1ccccc1C2=O (stereo partly specified)
inactive: [2] 42.7 µM | [3] 16.9 µM | [4] > 100 µM | [5] 45.7 µM | [6] 64.6 µM | [18] > 100 µM | [7] 48.2 µM | [17] 38.2 µM | [8] > 100 µM | [9] 34.3 µM | [10] 65.2 µM | [11] > 100 µM | [12] 56.8 µM | [13] 13.9 µM | [14] > 100 µM | [15] 46.5 µM | [16] 34.9 µM
